According to patent EP4786483A1, “AURISTATIN DERIVATIVE AND ANTIBODY-DRUG CONJUGATE THEREOF” (priority 2023, dated 2025):
Where two headings read alike, the source gives them in different places.

Key:
Type in all cases: cell-based
[1] = system: human breast cancer cells KPL-4; test: Cytotoxicity test for compounds (CellTiter-Glo cell proliferation inhibition); conditions: Homo sapiens, KPL4, 72 h
Experimental: (§1) Biological Test Example 1: Cytotoxicity Test for Compounds
(§2) • 96-well clear flat-bottom white plate (Corning, #3610) • RPMI1640 culture medium (Gibco, #A10491-01) • Fetal Bovine Serum (Sigma-Aldrich, #F8687-500ML) • CellTiter-Glo® Luminescent Cell Viability Assay (Promega, # G7572/G7571)
(§3) Human gastric cancer cells NCI-N87 (ATCC, Cat. No.: CRL-5822), human breast cancer cells MDA-MB-468 (Cell Bank of the Committee for Type Culture Collection of the Chinese Academy of Sciences, Cat. No.: TCHu136), and human breast cancer cells KPL-4 (Nanjing Cobioer Biosciences Co., Ltd., Cat. No.: CBP60379) were washed with PBS and digested with 0.25% Trypsin-EDTA trypsin for about 3-10 min. The digestion was terminated with a complete cell culture medium. The cells were centrifuged at 1000 rpm for 5 min, and the supernatant was discarded. The cells were resuspended in a complete cell culture medium. The cell number was counted using a cell counter, and the cells were adjusted to the desired density. 90.0 µL of the cell suspension was added to each well at 3000 cells/well. The cell plate was incubated in a cell incubator at 37°C with 5% CO2 overnight.
(§4) In the experiment, a DMSO control group and test sample groups were set. The cell plate was removed from the incubator to observe cell adherence. After the cells adhered, 10.00 µL of the sample (starting from a final concentration of 10 µM, 5-fold dilution, 9 concentrations) was added to each well. After the mixture was gently shaken uniformly, the plate was incubated in the incubator.
(§5) After 3 days of incubation, 100.0 µL/well of CellTiter-Glo™ (Promega, Cat. No.: G7572/G7571) working solution was added. The plate was shaken on a thermostatic shaker to lyse the cells. After 10 min, the plate was read on a microplate reader.
(§6) Data analysis: GraphPad Prism 8.0 software was used to plot a graph with the Log value of the sample concentration as the abscissa and the Inhibition% as the ordinate. The data were analyzed by Nonlinear regression (curve fit) to obtain the IC50 value of each test sample. Table 1. Inhibition activity of compounds of the present disclosure on cell proliferation

[2] = system: Human gastric cancer cells NCI-N87; test: as above; conditions: Homo sapiens, NCI-N87, 72 h
Experimental: as §1, §2, §3, §4, §5, §6

[3] = system: human breast cancer cells MDA-MB-468; test: as above; conditions: Homo sapiens, MDA-MB-468, 72 h
Experimental: as §1, §2, §3, §4, §5, §6

[4] = system: CD34^+ hematopoietic stem/progenitor cells; test: Hematologic toxicity of compounds (CD34+ HSC viability, CTG); conditions: 240 h; cytotoxic drugs; treatment for 10 days; CTG cell viability
Experimental: Experimental objective: The effects of cytotoxic drugs on the differentiation and development of CD34^+ hematopoietic stem/progenitor cells into the megakaryocytic lineage were investigated, so as to evaluate their potential hematologic toxicity of causing thrombocytopenia.
Experimental design: After resuscitation, bone marrow-mobilized peripheral blood-derived HSCs were seeded at 2000 cells/well/180 µL in an ultra-low attachment 96-well round-bottom plate and stabilized for 4 h. The cells were treated with compounds by performing a 5-fold gradient dilution starting from the highest dose of 1 µM, resulting in a total of 9 concentration points, and this treatment was maintained continuously for 10 days. Cell viability was detected using the CTG reagent (CellTiter-Glo luminescent cell viability detection kit, manufacturer: Promega, Cat. No.: G7571). Table 2. Hematologic toxicity test results of cytotoxic drugs

[5] = 3 days of incubation, CellTiter-Glo, read-out: KPL-4/IC50
[6] = 3 days of incubation, CellTiter-Glo, read-out: NCI-87/IC50
[7] = 3 days of incubation, CellTiter-Glo, read-out: MDA-MD-468/IC50

For `CC[C@H](C)[C@@H]([C@@H](CC(=O)N1CCC[C@H]1[C@H](OC)[C@@H](C)C(=O)N(O)CCc1cccc(N)c1)OC)N(C)C(=O)[C@@H](NC(=O)[C@H](C(C)C)N(C)C)C(C)C` [Example 8, (S)-N-((3R,4S,SS)-1-((S)-2-((1R,2R)-3-((3-aminophenethyl)(hydroxy)amino)-1-methoxy-2-methyl-3-oxopropyl)pyrrolidin-1-yl)-3-methoxy-5-methyl-1-oxoheptan-4-yl)-2-((S)-2-(dimethylamino)-3-methylbutanamido)-N,3-dimethylbutanamide], the IC50 [1, 5] was 0.14 nM, the IC50 [2, 6] was 0.66 nM and the IC50 [3, 7] was 0.56 nM.
`CC[C@H](C)[C@@H]([C@@H](CC(=O)N1CCC[C@H]1[C@H](OC)[C@@H](C)C(=O)O[C@H](CC#N)Cc1cccc(N)c1)OC)N(C)C(=O)[C@@H](NC(=O)[C@H](C(C)C)N(C)C)C(C)C` [Example 9, (S)-1-(3-aminophenyl)-3-cyanopropan-2-yl (2R,3R)-3-((S)-1-((3R,4S,5S)-4-((S)-2-((S)-2-(dimethylamino)-3-methylbutanamido)-N,3-dimethylbutanamido)-3-methoxy-5-methylheptanoyl)pyrrolidin-2-yl)-3-methoxy-2-methylpropanoate] gave an IC50 [1, 5] of 0.74 nM, an IC50 [2, 6] of 3.84 nM and an IC50 [3, 7] of 3.34 nM.
Molecule `C=CCN(C(=O)[C@H](C)[C@@H](OC)[C@@H]1CCCN1C(=O)C[C@@H](OC)[C@H]([C@@H](C)CC)N(C)C(=O)[C@@H](NC(=O)[C@H](C(C)C)N(C)C)C(C)C)[C@H](CC#N)Cc1cccc(N)c1` [Example 10, (S)-N-((3R,4S,5S)-1-((S)-2-((1R,2R)-3-(allyl((S)-1-(3-aminophenyl)-3-cyanopropan-2-yl)amino)-1-methoxy-2-methyl-3-oxopropyl)pyrrolidin-1-yl)-3-methoxy-5-methyl-1-oxoheptan-4-yl)-2-((S)-2-(dimethylamino)-3-methylbutanamido)-N,3-dimethylbutanamide] has an IC50 [1, 5] of 1.25 nM, an IC50 [2, 6] of 3.35 nM and an IC50 [3, 7] of 1.97 nM.
For `CC[C@H](C)[C@@H]([C@@H](CC(=O)N1CCC[C@H]1[C@H](OC)[C@@H](C)C(=O)O[C@H](C)Cc1cccc(N)c1)OC)N(C)C(=O)[C@@H](NC(=O)[C@H](C(C)C)N(C)C)C(C)C` [Example 11, (R)-1-(3-aminophenyl)propan-2-yl (2R,3R)-3-((S)-1-((3R,4S,5S)-4-((S)-2-((S)-2-(dimethylamino)-3-methylbutanamido)-N,3-dimethylbutanamido)-3-methoxy-5-methylheptanoyl)pyrrolidin-2-yl)-3-methoxy-2-methylpropanoate], the IC50 [1, 5] was 0.1 nM, the IC50 [2, 6] was 0.15 nM and the IC50 [3, 7] was 3 nM.
`CC[C@H](C)[C@@H]([C@@H](CC(=O)N1CCC[C@H]1[C@H](OC)[C@@H](C)C(=O)O[C@@H](C)Cc1cccc(N)c1)OC)N(C)C(=O)[C@@H](NC(=O)[C@H](C(C)C)N(C)C)C(C)C` [Example 12, (S)-1-(3-aminophenyl)propan-2-yl (2R,3R)-3-((S)-1-((3R,4S,5S)-4-((S)-2-((S)-2-(dimethylamino)-3-methylbutanamido)-N,3-dimethylbutanamido)-3-methoxy-5-methylheptanoyl)pyrrolidin-2-yl)-3-methoxy-2-methylpropanoate] showed an IC50 [1, 5] of 1.42 nM, an IC50 [2, 6] of 4.05 nM and an IC50 [3, 7] of 11.8 nM.
Molecule `CC[C@H](C)[C@@H]([C@@H](CC(=O)N1CCC[C@H]1[C@H](OC)[C@@H](C)C(=O)OCCc1cccc(N)c1)OC)N(C)C(=O)[C@@H](NC(=O)[C@H](C(C)C)N(C)C)C(C)C` [Example 13] has an IC50 ([1]; read-out: KPL-4/IC50 (nM)) of 0.18 nM, an IC50 ([2]; read-out: NCI-87/IC50 (nM)) of 0.58 nM and an IC50 ([3]; read-out: MDA-MD-468/IC50 (nM)) of 0.56 nM.
With `CC[C@H](C)[C@@H]([C@@H](CC(=O)N1CCC[C@H]1[C@H](OC)[C@@H](C)C(=O)O[C@H](CO)Cc1cccc(N)c1)OC)N(C)C(=O)[C@@H](NC(=O)[C@H](C(C)C)N(C)C)C(C)C` [Example 14] the IC50 ([1]; read-out: KPL-4/IC50 (nM)) was 1.13 nM, the IC50 ([2]; read-out: NCI-87/IC50 (nM)) was 5.13 nM and the IC50 ([3]; read-out: MDA-MD-468/IC50 (nM)) was 3.82 nM.
Molecule `CC[C@H](C)[C@@H]([C@@H](CC(=O)N1CCC[C@H]1[C@H](OC)[C@@H](C)C(=O)O[C@H](CN=[N+]=[N-])Cc1cccc(N)c1)OC)N(C)C(=O)[C@@H](NC(=O)[C@H](C(C)C)N(C)C)C(C)C` [Example 15] has an IC50 ([1]; read-out: KPL-4/IC50 (nM)) of 2 nM, an IC50 ([2]; read-out: NCI-87/IC50 (nM)) of 11.3 nM and an IC50 ([3]; read-out: MDA-MD-468/IC50 (nM)) of 2.74 nM.
For `C#CC[C@H](Cc1cccc(N)c1)OC(=O)[C@H](C)[C@@H](OC)[C@@H]1CCCN1C(=O)C[C@@H](OC)[C@H]([C@@H](C)CC)N(C)C(=O)[C@@H](NC(=O)[C@H](C(C)C)N(C)C)C(C)C` [Example 17], the IC50 ([1]; read-out: KPL-4/IC50 (nM)) was < 0.0256 nM, the IC50 ([2]; read-out: NCI-87/IC50 (nM)) was < 0.0256 nM and the IC50 ([3]; read-out: MDA-MD-468/IC50 (nM)) was < 0.0256 nM.
With `C=CC[C@H](Cc1cccc(N)c1)OC(=O)[C@H](C)[C@@H](OC)[C@@H]1CCCN1C(=O)C[C@@H](OC)[C@H]([C@@H](C)CC)N(C)C(=O)[C@@H](NC(=O)[C@H](C(C)C)N(C)C)C(C)C` [Example 18] the IC50 ([1]; read-out: KPL-4/IC50 (nM)) was < 0.0256 nM, the IC50 ([2]; read-out: NCI-87/IC50 (nM)) was < 0.0256 nM and the IC50 ([3]; read-out: MDA-MD-468/IC50 (nM)) was < 0.0256 nM.
With `C=CC(Cc1cccc(N)c1)OC(=O)[C@H](C)[C@@H](OC)[C@@H]1CCCN1C(=O)C[C@@H](OC)[C@H]([C@@H](C)CC)N(C)C(=O)[C@@H](NC(=O)[C@H](C(C)C)N(C)C)C(C)C` (stereo partly shown) [Example 19] the IC50 ([1]; read-out: KPL-4/IC50 (nM)) was < 0.0256 nM, the IC50 ([2]; read-out: NCI-87/IC50 (nM)) was < 0.0256 nM and the IC50 ([3]; read-out: MDA-MD-468/IC50 (nM)) was < 0.0256 nM.
In the case of `CC[C@H](C)[C@@H]([C@@H](CC(=O)N1CCC[C@H]1[C@H](OC)[C@@H](C)C(=O)O[C@H](CF)Cc1cccc(N)c1)OC)N(C)C(=O)[C@@H](NC(=O)[C@H](C(C)C)N(C)C)C(C)C` [Example 24], the IC50 ([1]; read-out: KPL-4/IC50 (nM)) is reported as < 0.0256 nM, the IC50 ([2]; read-out: NCI-87/IC50 (nM)) is reported as < 0.0256 nM and the IC50 ([3]; read-out: MDA-MD-468/IC50 (nM)) is reported as < 0.0256 nM.
`CC[C@H](C)[C@@H]([C@@H](CC(=O)N1CCC[C@H]1[C@H](OC)[C@@H](C)C(=O)O[C@@H](Cc1cccc(N)c1)C(F)F)OC)N(C)C(=O)[C@@H](NC(=O)[C@H](C(C)C)N(C)C)C(C)C` [Example 25] was tested, and the IC50 ([1]; read-out: KPL-4/IC50 (nM)) was < 0.0256 nM, the IC50 ([2]; read-out: NCI-87/IC50 (nM)) was < 0.0256 nM and the IC50 ([3]; read-out: MDA-MD-468/IC50 (nM)) was < 0.0256 nM.
In the case of `CCC(C)C(C(CC(=O)N1CCCC1C(OC)C(C)C(=O)OC(Cc1cccc(N)c1)C(=O)NC)OC)N(C)C(=O)C(NC(=O)C(C(C)C)N(C)C)C(C)C` (stereo not shown) [Example 30], the IC50 [1, 5] is reported as 2.42 nM, the IC50 [2, 6] is reported as 5.62 nM and the IC50 [3, 7] is reported as 0.72 nM.
With `C=C(C)C(Cc1cccc(N)c1)OC(=O)[C@H](C)[C@@H](OC)[C@@H]1CCCN1C(=O)C[C@@H](OC)[C@H]([C@@H](C)CC)N(C)C(=O)[C@@H](NC(=O)[C@H](C(C)C)N(C)C)C(C)C` (stereo partly shown) [Example 31] the IC50 ([1]; read-out: KPL-4/IC50 (nM)) was < 0.0256 nM, the IC50 ([2]; read-out: NCI-87/IC50 (nM)) was < 0.0256 nM and the IC50 ([3]; read-out: MDA-MD-468/IC50 (nM)) was 0.11 nM.
With `CC[C@H](C)[C@@H]([C@@H](CC(=O)N1CCC[C@H]1[C@H](OC)[C@@H](C)C(=O)OC1(Cc2cccc(N)c2)CC1)OC)N(C)C(=O)[C@@H](NC(=O)[C@H](C(C)C)N(C)C)C(C)C` [Example 32] the IC50 ([1]; read-out: KPL-4/IC50 (nM)) was < 0.0256 nM, the IC50 ([2]; read-out: NCI-87/IC50 (nM)) was < 0.0256 nM and the IC50 ([3]; read-out: MDA-MD-468/IC50 (nM)) was < 0.0256 nM.
`CC[C@H](C)[C@@H]([C@@H](CC(=O)N1CCC[C@H]1[C@H](OC)[C@@H](C)C(=O)N(CC#N)CCc1cccc(N)c1)OC)N(C)C(=O)[C@@H](NC(=O)[C@H](C(C)C)N(C)C)C(C)C` [Example 45, (S)-N-((3R,4S,5S)-1-((S)-2-((1R,2R)-3-((3-aminophenethyl)(cyanomethyl)amino)-1-methoxy-2-methyl-3-oxopropyl)pyrrolidin-1-yl)-3-methoxy-5-methyl-1-oxoheptan-4-yl)-2-((S)-2-(dimethylamino)-3-methylbutanamido)-N,3-dimethylbutanamide] showed an IC50 [1, 5] of 0.65 nM, an IC50 [2, 6] of 2.21 nM and an IC50 [4] of 0.235 nM.
In the case of `CC[C@H](C)[C@@H]([C@@H](CC(=O)N1CCC[C@H]1[C@H](OC)[C@@H](C)C(=O)N(C)CCc1cccc(N)c1)OC)N(C)C(=O)[C@@H](NC(=O)[C@H](C(C)C)N(C)C)C(C)C` [WO2023081230A1 Compound 1, reference compound], the IC50 [4] is reported as 0.017 nM.
